Measurements: patent US12257224B2, “Methods of administration for highly water-soluble salts of a short acting phenylalkylamine calcium channel blocker” (Milestone Pharmaceuticals Inc., priority 2021, dated 2025)

Key:
[1] = Permeation of compound I through the nasal epithelium with EDTA in the formulation
Excerpt: The nasal vestibule, which accounts for approximately 3-4% of the surface area of the nasal cavity, lacks tight junctions altogether and is thus not affected by calcium chelating agents. […] As such, it has been postulated that the nasal epithelium is not susceptible to permeability modulation by EDTA (Aungst, et al., Pharma. Res., 1998, 5:305-308). Additionally, the ability of EDTA to increase permeation of a compound through the nasal epithelium is attenuated as the molecular weight of the compound increases (Nakanishi, et al., Chem. Pharm. Bull., 1984, 32:1628-1632).

[2] = Formation of concentrated aqueous acid addition salt solutions of compound I; format: physicochemical; conditions: free base treated with methanesulfonic acid or acetic acid
PSVT [3] = experiment: Example 2: Phase 3 study of self-administered 70 mg dose for PSVT in an at-home setting; format: in vivo, human
Procedure: A multi-center, randomized, double-blind, placebo-controlled study to evaluate the efficacy and safety of a 70 mg self-administered dose of compound I in an at-home setting was conducted. […] PSVT episodes were documented by an ambulatory Cardiac Monitoring System (CMS) placed on the chest by the patient or caregiver when symptoms began and were recorded at least 5 hours of continuous electrocardiogram (ECG).
The primary efficacy endpoint was defined as an adjudicated termination of a positively adjudicated episode of PSVT and conversion to sinus rhythm for at least 30 seconds. The primary efficacy endpoint was evaluated using the time to conversion of an episode of PSVT to sinus rhythm after study drug administration as the primary efficacy variable. The study included a screening visit, a test dose randomization visit, follow-up visits, a treatment period, and a final study visit. Before randomization, all patients received a 70 mg test dose of compound I to evaluate tolerability. The test dose administration took place at the study site under medical supervision while the patient was in sinus rhythm (SR). Patients who passed the test dose were randomized in a 2:1 ratio to 70 mg compound I or placebo. During the treatment period, all randomized patients performed a sequence of steps upon self-identifying symptoms of an episode of PSVT, including contacting a telephone coach for assistance on study procedures, applying a CMS on their chest, performing a vagal maneuver (VM), and study drug self-administration.
For administration, the patients placed the applicator of the system into their nose. The subject's held the nasal delivery system between the second and third fingers, with the thumb placed on the actuator. […] The subjects then apply pressure to the actuator, which forces the liquid solution containing the dissolved acetate salt of compound I through the device, causing the solution to be released from the tip of the applicator as a spray. The solution was administered to the patients as two single pump spray dosages in order to deliver 70 mg of compound I to the nasal epithelium.
The presence of an episode of PSVT and termination were evaluated by an independent Adjudication Committee. The Adjudication Committee's evaluations were done using the complete CMS ECG recorded during the patient's PSVT episode.

[4] = Procedure: Randomized, double-blind, placebo-controlled, ethnobridging PK/PD study, 35, 70 and 105 mg doses were evaluated.
[5] = Phase 1 study (doses up to 140 mg; PR interval, MFD, TEAEs); format: in vivo, human
subjects in sinus rhythm = experiment: Example 4: one vs two 70 mg doses, PR interval and safety; format: in vivo, human
Procedure: A population of 46 subjects in sinus rhythm received one 70 mg dose of compound I according to the protocol of Example 2, and after several months the dose regimen of 70 mg followed by a repeat same dose of 70 mg 10 minutes later as in the protocol of Example 3.
Two dose administration followed the same protocol as single dose administration for the initial dose, however 10 minutes after the first 70 mg dose of compound I, a second 70 mg dose of compound I was administered. For the second dose, the patients were allowed to blow their nose to remove any excess fluid build-up immediately prior to self-administration of the second 70 mg dose.

PSVT [6] = experiment: Example 5: heart rate during PSVT prior to conversion to sinus rhythm; format: in vivo, human
Excerpt: Each PSVT was documented by an ambulatory cardiac monitoring system that was placed on the chest after symptoms began. Baseline (average of four values before drug administration), and every minute of heart rate data were captured from baseline until one minute before the PSVT was converted to sinus rhythm. […]

[7] = one and two 70 mg dose regimens
[8] = patients who converted to sinus rhythm

COC(=O)c1cccc(CCN(C)CCCC(C#N)(c2ccc(OC)c(OC)c2)C(C)C)c1 (centres unmarked) [compound I, methyl 3-(2-((4-cyano-4-(3,4-dimethoxyphenyl)-5-methylhexyl)(methyl)amino)ethyl)benzoate]
permeation through the nasal epithelium [1]: increased the permeation of compound I through the nasal epithelium
salt solution concentration attainable [2]: concentrations sufficient for nasal administration
incidences of severe adverse events or adverse events of interest vs placebo (PSVT [3]; 70 mg): no significant differences
median time to conversion (PSVT [3]; 70 mg): 25 min
most common adverse events (PSVT [3]; 70 mg): local to the nose, including nasal irritation and congestion
patients converted to SR within 30 minutes after study drug administration (PSVT [3]; 70 mg): 54%
patient reported treatment satisfaction (TSQM-9) (PSVT [3]; 70 mg vs placebo, secondary endpoint): nominal statistically significant improvements in favor of compound I over placebo
hazard ratio HR (95% CI), time to conversion of PSVT to SR vs placebo (PSVT [3]; 70 mg, 5-hour observation period): 1.086 (0.726, 1.623)
safety and tolerability (PSVT [3]; 70 mg, over 5 hours following treatment, more than 100 patients in PSVT): safe and well tolerated
absolute difference in conversion rate vs placebo by 30 minutes (PSVT [3]; 70 mg, post hoc analysis): ~19%
time at which pharmacodynamic effect began to decrease ([4]; 35, 70 and 105 mg doses): 15 min
time to increase of PR interval and HR ([4]; 35, 70 and 105 mg doses): ≤ 10 min
duration of pharmacodynamic effect ([4]; duration of PR prolongation exceeding 10% from baseline): 30 to 45 min
exposure, dose proportionality ([4]; human, in vivo): increased in a dose proportional manner between 35 and 70 mg but not between the 70 and 105 mg doses
PR interval of the ECG ([5]; 4 highest doses tested: 30, 60, 105 and 140 mg): produced an increase in the PR interval of the ECG
Treatment Emergent Adverse Effects (TEAEs) ([5]; doses higher than 70 mg): an increase in Treatment Emergent Adverse Effects (TEAEs), mainly related to nasal irritation
drug exposure and PR interval ([5]; two 30 mg doses 10 minutes apart vs single 30 mg dose): drug exposure and PR interval increased and remained elevated for a longer period
AV block (subjects in sinus rhythm; [7]): No new AV block was observed
lowest systolic blood pressure seen (subjects in sinus rhythm; [7]): ≥ 99 mmHg
severe adverse reactions (subjects in sinus rhythm; [7]): No severe adverse reactions were seen
increase in PR interval (subjects in sinus rhythm; repeat 70 mg, second dose 10 minutes after the initial dose): 21 ms
maximum percentage increase in PR interval (subjects in sinus rhythm; repeat dose of 70 mg): 14%
duration of PR increase (subjects in sinus rhythm; repeat dose of 70 mg vs single dose of 70 mg): more prolonged
increase in PR interval (subjects in sinus rhythm; single 70 mg administration): 15 ms
maximum percentage increase in PR interval (subjects in sinus rhythm; single 70 mg administration): 9%
heart rate and systolic blood pressure (subjects in sinus rhythm; single 70 mg dose and two 70 mg doses separated by 10 minutes): remain in normal ranges
safety and tolerability (subjects in sinus rhythm; two dose regimen of 70 mg compared to single dose regimen): safe and was well tolerated
mean change in heart rate from baseline (±SE) (PSVT [6]; 70 mg, 3 min, during PSVT): −10 bpm
mean change in heart rate from baseline (±SE) (PSVT [6]; 70 mg, 10 min, during PSVT): −16 bpm
mean change in heart rate from baseline (±SE) (PSVT [6]; 70 mg, 30 min, during PSVT): −14 bpm
mean change in heart rate from baseline (±SE) (PSVT [6]; 70 mg, 40 min, during PSVT): −13 bpm
persistence of decrease in heart rate (PSVT [6]; 70 mg, during PSVT): sustained through the 60-minute observation period
mean change in heart rate from baseline (±SE) (PSVT [6]; 70 mg, within the first minute, during PSVT): −5 bpm
maximal change from baseline in heart rate, converters to sinus rhythm in <30 minutes versus >30 minutes (PSVT [6]; [8]): significant difference
maximal change from baseline in heart rate, converters to sinus rhythm in <60 minutes versus >60 minutes (PSVT [6]; [8]): significant difference
